Experiments:
[1] = Oral bioavailability in Han Wistar rat at 2.3 to […]; assay type: ADME, organism-based; conditions: in vivo
in vitro [2] = conditions: human, Caco-2
physchem = conditions: buffer, pH 7.4
in vivo = conditions: Han Wistar, rat, iv
in vitro [3] = conditions: rat, hepatocytes
[4] = Half life in mouse at 2 mg/kg, iv; assay type: ADME, organism-based; set-up: dose 2 mg/kg, route intravenous; conditions: in vivo
[5] = Oral bioavailability in rat at 2 mg/kg; assay type: ADME, organism-based; conditions: in vivo
[6] = Half life in mouse at 2 mg/kg, po; assay type: ADME, organism-based; set-up: dose 2 mg/kg, route oral; conditions: in vivo
[7] = Oral bioavailability in mouse at 2 mg/kg; assay type: ADME, organism-based; conditions: in vivo
[8] = Clearance in rat plasma at 1 mg/kg, iv and 2 mg/kg, po; assay type: ADME, organism-based
[9] = Oral bioavailability in dog at 0.5 mg/kg; assay type: ADME, organism-based, Canis lupus familiaris; conditions: in vivo
Canis familiaris = assay: Volume of distribution at steady state in dog plasma at 0.5 mg/kg, iv and po; assay type: ADME, organism-based, Canis lupus familiaris; set-up: dose 0.5 mg/kg, route oral; conditions: in vivo
[10] = Volume of distribution at steady state in rat plasma at 1 mg/kg, iv and 2 mg/kg, po; assay type: ADME, organism-based; conditions: read-out: Vdss
[11] = Half life in rat at 1 mg/kg, iv; assay type: ADME, organism-based; set-up: dose 1 mg/kg, route intravenous; conditions: in vivo
Mus musculus = assay: Volume of distribution at steady state in mouse plasma at 2 mg/kg, iv and po; assay type: ADME, organism-based; set-up: dose 2 mg/kg, route oral; conditions: in vivo
[12] = Half life in rat at 2 mg/kg, po; assay type: ADME, organism-based; set-up: dose 2 mg/kg, route oral; conditions: in vivo
[13] = Half life in dog at 0.5 mg/kg, iv; assay type: ADME, organism-based, Canis lupus familiaris; set-up: dose 0.5 mg/kg, route intravenous; conditions: in vivo

| Structure (SMILES) | bioavailability ([1]; at 2.3 to […]) | Papp A→B (in vitro [2]) | logD (physchem) | hepatocyte CLint (in vitro [3]) | also measured |
| --- | --- | --- | --- | --- | --- |
| Cc1ccc(-c2ccc(N3CCOc4ncnc(N)c4C3=O)cc2)c(Cl)c1 | 14% | 16.6 ×10⁻⁶ cm/s | 3.5 |  |  |
| Nc1ncnc2c1C(=O)N(c1ccc(-c3ccc(CC(=O)N4CC[C@@H](O)C4)cc3Cl)cc1)CCO2 | 15% | 1.1 ×10⁻⁶ cm/s | 1.1 |  |  |
| CN(Cc1ccc(-c2ccc(N3CCOc4ncnc(N)c4C3=O)cc2)c(Cl)c1)S(C)(=O)=O | 28% |  |  | 5.9 µL/min/1e6 cells | clearance (in vivo): 5 mL/min/kg |
| NC(=O)Cc1ccc(-c2ccc(N3CCOc4ncnc(N)c4C3=O)cc2)c(Cl)c1 |  |  | 1.3 | 35 µL/min/1e6 cells |  |
| N#Cc1cccc(-c2ccc(N3CCOc4ncnc(N)c4C3=O)cc2)c1Cl |  | 54.8 ×10⁻⁶ cm/s | 2.5 | 4.6 µL/min/1e6 cells |  |
| CS(=O)(=O)NCc1ccc(-c2ccc(N3CCOc4ncnc(N)c4C3=O)cc2)c(Cl)c1 | 21% | 11.3 ×10⁻⁶ cm/s | 1.8 |  |  |
| Nc1ncnc2c1C(=O)N(c1ccc(-c3ccccc3F)cc1)CCO2 | 93% | > 10 ×10⁻⁶ cm/s |  | < 2 µL/min/1e6 cells | half-life [4]: 3.5 h; bioavailability [5]: 93%; half-life [6]: 3.1 h; bioavailability [7]: > 100%; clearance [8]: 7.3 mL/min/kg; clearance (in vivo): 7 mL/min/kg; bioavailability [9]: 76%; Vdss (Canis familiaris): 2.4 L/kg; Vd [10]: 1.9 L/kg; half-life [11]: 6.7 h; Vdss (Mus musculus): 0.6 L/kg; half-life [12]: 3.3 h; half-life [13]: 1.2 h |
| Nc1ncnc2c1C(=O)N(c1ccc(-c3ccc(CC(=O)N4CC(O)C4)cc3Cl)cc1)CCO2 |  |  | 1.1 | < 3.1 µL/min/1e6 cells |  |
| Nc1ncnc2c1C(=O)N(c1ccc(-c3ccc(CC(=O)N4CCNC(=O)C4)cc3Cl)cc1)CCO2 | 3% |  | 0.9 |  |  |
| N#Cc1ccc(-c2ccc(N3CCOc4ncnc(N)c4C3=O)cc2)c(Cl)c1 |  | 48.2 ×10⁻⁶ cm/s | 2.4 | 4.8 µL/min/1e6 cells |  |
| CN(Cc1ccc(-c2ccc(N3CCOc4ncnc(N)c4C3=O)cc2)c(Cl)c1)C(=O)CN |  | 0.2 ×10⁻⁶ cm/s | 0.1 | 4.9 µL/min/1e6 cells |  |
| Nc1ncnc2c1C(=O)N(c1ccc(-c3ccc(CC(=O)O)cc3Cl)cc1)CCO2 |  |  | -0.4 | 14 µL/min/1e6 cells |  |
| Nc1ncnc2c1C(=O)N(c1ccc(-c3cccc(Cl)c3Cl)cc1)CCO2 | 150% |  | 3.8 | 9.3 µL/min/1e6 cells | clearance (in vivo): 24 mL/min/kg |
| Nc1ncnc2c1C(=O)N(c1ccc(-c3ccc(Cn4cccnc4=O)cc3Cl)cc1)CCO2 |  |  |  | 18.4 µL/min/1e6 cells |  |
| Nc1ncnc2c1C(=O)N(c1ccc(-c3cc(Cl)ccc3Cl)cc1)CCO2 | 110% | 16.2 ×10⁻⁶ cm/s | 3.7 | 9.5 µL/min/1e6 cells | clearance (in vivo): 12 mL/min/kg |
| Cc1ccccc1-c1ccc(N2CCOc3ncnc(N)c3C2=O)cc1 |  | > 10 ×10⁻⁶ cm/s | 2.7 |  |  |
| Nc1ncnc2c1C(=O)N(c1ccc(-c3ccccc3Cl)c(F)c1)CCO2 | 14% | > 10 ×10⁻⁶ cm/s | 3 |  | clearance (in vivo): 18 mL/min/kg |

| Structure (SMILES) | bioavailability ([1]; at 2.3 to […]) | Papp A→B (in vitro [2]) | logD (physchem) | hepatocyte CLint (in vitro [3]) | also measured |
| --- | --- | --- | --- | --- | --- |
| N#Cc1cccc(Cl)c1-c1ccc(N2CCOc3ncnc(N)c3C2=O)cc1 |  | > 10 ×10⁻⁶ cm/s | 2.1 |  |  |
| Nc1ncnc2c1C(=O)N(c1ccc(-c3c(F)cccc3F)c(F)c1)CCO2 |  | > 10 ×10⁻⁶ cm/s | 2.9 |  |  |
| Nc1ncnc2c1C(=O)N(c1ccc(-c3ccccc3)cc1)CCO2 |  | > 10 ×10⁻⁶ cm/s | 2.4 |  |  |
| Nc1ncnc2c1C(=O)N(c1ccc(-c3ccc(CN4CC[C@H](O)C4=O)cc3Cl)cc1)CCO2 |  | 6.4 ×10⁻⁶ cm/s | 1.1 | < 2 µL/min/1e6 cells |  |
| CS(=O)(=O)Cc1ccc(-c2ccc(N3CCOc4ncnc(N)c4C3=O)cc2)c(Cl)c1 | 61% |  |  | < 2.8 µL/min/1e6 cells | clearance (in vivo): 5 mL/min/kg |
| Nc1ncnc2c1C(=O)N(c1ccc(-c3ccccc3Cl)cc1)CCO2 | 65% | 32.5 ×10⁻⁶ cm/s | 2.9 | 11.1 µL/min/1e6 cells | clearance (in vivo): 21 mL/min/kg |
| Nc1ncnc2c1C(=O)N(c1ccc(-c3ncccc3Cl)cc1)CCO2 | 68% | > 10 ×10⁻⁶ cm/s | 1.5 |  |  |
| Nc1ncnc2c1C(=O)N(c1ccc(-c3ccc(CO)cc3Cl)cc1)CCO2 |  | 16.8 ×10⁻⁶ cm/s |  |  |  |
| CC(=O)N(C)Cc1ccc(-c2ccc(N3CCOc4ncnc(N)c4C3=O)cc2)c(Cl)c1 |  | 19.7 ×10⁻⁶ cm/s | 1.9 | 11 µL/min/1e6 cells |  |
| Nc1ncnc2c1C(=O)N(c1ccc(-c3ccc(Cl)cc3Cl)cc1)CCO2 |  |  | > 3.9 |  | bioavailability [1]: 87% |
| Cc1cccc(Cl)c1-c1ccc(N2CCOc3ncnc(N)c3C2=O)cc1 |  | > 10 ×10⁻⁶ cm/s | 3.4 |  |  |
| CN(Cc1ccc(-c2ccc(N3CCOc4ncnc(N)c4C3=O)cc2)c(Cl)c1)C(=O)CCCN |  | 0.2 ×10⁻⁶ cm/s | -1 | < 2 µL/min/1e6 cells |  |
| CC(=O)NCc1ccc(-c2ccc(N3CCOc4ncnc(N)c4C3=O)cc2)c(Cl)c1 | 100% | 14.5 ×10⁻⁶ cm/s | 1.8 |  |  |
| Nc1ncnc2c1C(=O)N(c1ccc(-c3c(F)cccc3F)cc1)CCO2 |  | > 10 ×10⁻⁶ cm/s | 2.5 |  |  |
| CN(Cc1ccc(-c2ccc(N3CCOc4ncnc(N)c4C3=O)cc2)c(Cl)c1)C(=O)CCN |  | 0.3 ×10⁻⁶ cm/s | -0.5 | < 2 µL/min/1e6 cells |  |
| Nc1ncnc2c1C(=O)N(c1ccc(-c3ccc(C(F)F)cc3Cl)cc1)CCO2 | 150% |  | 3.2 |  |  |
